Columns and labels:
mutp53 = assay: Summary score of peptide functional screens; details: overall score over conformation, DNA binding, viability and PCR screens
HOP62 = assay: Crystal violet viability assay, HOP62; type: cell-based, human; details: score 0-6 compared to positive control, 48 h
Source text: (§1) We also performed a similar analysis on ES2 ovarian cancer cells, which express endogenous mp53^S241F, compared to ES2 cells in which p53 was stably knocked out using CRISPR/Cas9 (ES2 p53KO Figure S1F), to control for specificity for mutp53 (Figure 2D). In ES2 cells, too, some of the peptides caused a significant reduction in cell numbers, more prominent in the mutp53 expressing cells than in their p53KO counterparts. […] Overall, we performed this analysis on several different mutp53-expressing human cancer cell lines, and the results are summarized in Table S3. Based on this comprehensive picture, we reduced the number of most promising candidate lead peptides to 30. These peptides were then synthesized with an 8 arginine C-terminal tail for enhanced delivery across cell membranes (pCAPs 130-160); for clarity, peptides are referred to by their original number, with an R for poly arginine (see Table S3).
(§2) Cells were cultured in 96 wells plates with 2500-4000 cells/well. Serial dilutions of different peptides were added and the plates incubated for additional 48 h at 37°C. Then medium was removed and cell viability was determined by staining the cells with crystal violet (0.05%) in methanol/PBS (1:5, v/v), for 10 min, followed by 3 washes with PBS. 10% acetic acid was added to each well for 10 min. OD was determined at 595 nm.

ES2 ovarian cancer cells = assay: Crystal violet viability assay, ES2; type: cell-based, human; details: score 0-6 compared to positive control, 48 h
Experimental: (§3) Cell extracts were added to ELISA plates coated with the indicated antibodies to allow mutp53 to react with the peptides and antibodies. αp53-HRP Ab was used for assessment of p53 levels. Numbers represent ratio of absorbance between the PAb1620 and PAb240 samples. All reads were normalized to the control […] reading of each extract. MCF7 (WTp53) and H1299-mutp53^A135V (tsp53) cells were used as positive controls for the WTp53 conformation (1620/240 ratio equals or exceeds 5:1). […] 96 well plates were coated with anti-p53 antibody, cell extracts containing p53 were reacted with oligonucleotides that contain a p53RE consensus binding site, labeled with biotin, in the presence or absence (NT) of test peptides. Streptavidin-HRP is used to quantify the amount of oligos in the well. TMB assay was performed to determine bound mutp53 levels (450nm). MCF7 and the H1299-mutp53^A135V(TS) cells serve as positive controls for WTp53. C.and D. - Bar graphs illustrating the effect of various selected peptides on mut-p53 dependent expression on cell viability. […] D, ES2 cells expressing endogenous mutp53 (blue bars) and ES2 cells knocked out for p53 by CRISPR construct (light blue bars). Cell lines were treated with selected peptides, Cis-platinum was used as positive control for cell death. 48 hours after treatment, cells were washed with PBS, and the remaining attached cells were stained with Crystal violet and washed 4 times with PBS. Stained cells were dissolved in 10% acetic acid and plates were taken for optical density measurement at […]. TEXT PRINTED IN THE PICTURE: (A) pCAP1: 0.87 | (A) pCAP2: 0.53 | (A) pCAP3: 0.59 | (A) pCAP4: 0.59 | (A) pCAP5: 0.60 | (A) pCAP6: 0.75 | (A) pCAP23: 1.06 | (A) pCAP24: 1.44 | (A) pCAP36: 1.25 | (A) pCAP47: 1.54 | (A) pCAP54: 1.54 | (A) pCAP60: 2.73 | (A) pCAP68: 2.22 | (A) pCAP83: 1.56 | (A) pCAP97: 2.45 DOUBTS OF THE COPYIST ABOUT THIS PICTURE: Panel A: the numbers over the bars are printed very small, rotated and blurred, so 3, 5, 6, 8 and 9 cannot be told apart with certainty. All values are best readings: pCAP1 0.87, pCAP2 0.53, pCAP3 0.59, pCAP4 0.59, pCAP5 0.60, pCAP6 0.75, pCAP23 1.06, pCAP24 1.44, pCAP36 1.25, pCAP47 1.54, pCAP54 1.54, pCAP60 2.73, pCAP68 2.22, pCAP83 1.56, pCAP97 2.45 / Panel A: the picture prints no measure with the numbers over the bars, so they are given as bare numbers / Panel A: numbers are also printed over the controls, which are not substances and are left out of lines. Best readings: NT 0.60, 60° 30'' 0.48, 60° 1' 0.37, 60° 3' 0.13, 60° 10' 0.05, MCF7 3.32, H1299TS 3.25
as §1, §2

[1] = test system: mutp53 in BT549 cell extract; assay: ELISA of mutp53 conformation, BT549; type: biochemical, human; details: score 0-6 compared to positive control
Source text: (§4) A total of close to 350 peptides, deduced from the phage sequences, were synthesized and subjected to several alternative complementary methods of semi high-throughput functional screening; we refer to these peptides as pCAPs (p53 conformation activating peptides). First, we used cell-free ELISA assays to evaluate the effect of individual peptides on mutp53 conformation and DNA binding in vitro. For conformation analysis (Figure 2A), microtiter plates were coated with PAb240, PAb1620 or PAb421 as control, then the effect of each peptide on reactivity of mutp53 with these antibodies was examined; WTp53 served as a positive control for PAb1620 reactivity.
(§5) 96-well plates were coated using 3 different anti p53 monoclonal antibodies, PAb421, PAb240 and PAb1620. Wells were incubated overnight (ON) with 100μl Ab (5μg/ml) in room temp (RT). The liquid was discarded, and the wells were washed 3 times with PBS, 200 μl. Next, blocking with 5% BSA in PBS for 2 hours (RT) was performed, followed by 3 washes in PBS. Samples of mutant and WT p53 proteins (100 μl, 10 μg/ml), together with control peptides or with test peptides 1-326 (5μg /ml), were incubated for 1.5 hours, and then added to the wells for1 hour at RT. 4 washes with PBST were performed. Next, HRP conjugated αp53 antibody (10μg/ml HAF1355 (R&D)) were added to the wells and incubated at RT for 1 hour. Plates were washed 3 times in PBST and TMB substrate solution (50μl each well, Thermo, (Cat. No. ES001-1L-K)) was added and incubated at 37°C for 20 min. The reaction was stopped with 2M Sulfuric acid (50μl). The absorbance was measured at 450 nm with a spectrophotometer. Protein concentration was determined by dividing the absorb an each sample to by the absorbance of PAb421 samples.

SK3 = assay: Crystal violet viability assay, SK3; type: cell-based, human; details: score 0-6 compared to positive control, 48 h
Source text: as §1, §2

[2] = test system: mutp53 in SK3 cell extract; assay: ELISA of mutp53 conformation, SK3; type: biochemical, human; details: score 0-6 compared to positive control
Source text: as §4, §5

[3] = test system: H1299 cells expressing mutp53^R175H; assay: Crystal violet viability assay, H1299; type: cell-based; details: score 0-6 compared to positive control, 48 h
Experimental: Cell extracts were added to ELISA plates coated with the indicated antibodies to allow mutp53 to react with the peptides and antibodies. αp53-HRP Ab was used for assessment of p53 levels. Numbers represent ratio of absorbance between the PAb1620 and PAb240 samples. All reads were normalized to the control PAb241 reading of each extract. MCF7 (WTp53) and H1299-mutp53^A135V (tsp53) cells were used as positive controls for the WTp53 conformation (1620/240 ratio equals or exceeds 5:1). […] 96 well plates were coated with anti-p53 antibody, cell extracts containing p53 were reacted with oligonucleotides that contain a p53RE consensus binding site, labeled with biotin, in the presence or absence (NT) of test peptides. Streptavidin-HRP is used to quantify the amount of oligos in the well. TMB assay was performed to determine bound mutp53 levels (450nm). MCF7 and the H1299-mutp53^A135V(TS) cells serve as positive controls for WTp53. C.and D. - Bar graphs illustrating the effect of various selected peptides on mut-p53 dependent expression on cell viability. […] D, ES2 cells expressing endogenous mutp53 (blue bars) and ES2 cells knocked out for p53 by CRISPR construct (light blue bars). Cell lines were treated with selected peptides, Cis-platinum was used as positive control for cell death. 48 hours after treatment, cells were washed with PBS, and the remaining attached cells were stained with Crystal violet and washed 4 times with PBS. Stained cells were dissolved in 10% acetic acid and plates were taken for optical density measurement at 595nM.
This simple assay measures the total number of cells, thus reflecting the combination of both cell death and growth arrest effects. […] After 48 hours of treatment cells were stained with crystal violet and OD at 595nm was determined.
Values on the Y-axis reflect the number of cells in the treated wells, normalized to the non-treated samples (NT; red bars).

WI38 = assay: Crystal violet viability assay, WI38; type: cell-based; details: score 0-6 compared to positive control, 48 h
Experimental: as §2

mutp53^R175H [4] = assay: ELISA of mutp53 DNA binding (p53RE oligonucleotide), H1299-p53^R175H cell extract; type: biochemical, human; details: score 0-6 compared to positive control; mutp53 DNA binding
Experimental: as §3
(§6) Next, we assessed the ability of our selected peptides to restore sequence-specific DNA binding to mutp53. To that end we employed an ELISA kit (R&D) in which cell extracts containing p53 are reacted with a biotinylated p53RE oligonucleotide and then incubated in wells coated with anti-p53 antibody, which is expected to trap the p53 protein and its associated p53RE DNA. The amount of p53RE retained in each well via p53 binding is quantified by incubation with streptavidin-HRP. […] Again, extracts of MCF7 and H1299-tsp53^A135V cells served as positive controls for WTp53 DNA binding activity. […] Importantly, there was substantial overlap between the peptides that stabilized the WT conformation (Figure 2A) and those that increased specific DNA binding (Figure 2B), further reinforcing the conclusion that those peptides stabilize mutp53 in a functional state. This was not seen with the randomly selected peptides 1-6 (black bars).
For these experiments, a commercial p53/DNA binding kit of “R&D” (Cat-DYC1355-5 Lot-1273366FA) was used, in accordance with manufacturer guide lines. Briefly, 96 well plates we coated with anti-p53 antibody overnight. Cell extracts containing p53 are reacted with an oligonucleotide that contains a p53 consensus binding site (provided in the kit), labeled with Biotin, in the presence or absence (NT) of test peptides. […]

[5] = test system: mutp53 in SK3 cell extract; assay: ELISA of mutp53 DNA binding (p53RE oligonucleotide), SK3; type: biochemical, human; details: score 0-6 compared to positive control
Experimental: as §6
For these experiments, a commercial p53/DNA binding kit of “R&D” (Cat-DYC1355-5 Lot-1273366FA) was used, in accordance with manufacturer guide lines. Briefly, 96 well plates we coated with anti-p53 antibody overnight. Cell extracts containing p53 are reacted with an oligonucleotide that contains a p53 consensus binding site (provided in the kit), labeled with Biotin, in the presence or absence (NT) of test peptides. WT p53 is expected to bind this DNA binding site as well as to the antibody coating the test wells of the plate. Excess p53 and oligos were washed away and streptavidin-HRP was used to quantify the amount of oligos in the well, which is proportional to the DNA bound by p53. TMB assay was performed to determine HRP (ES001-1L-K) levels (450nm).

mutp53^R175H [6] = assay: ELISA of mutp53 conformation (PAb1620/PAb240), H1299-p53^R175H cell extract; type: biochemical, human; details: score 0-6 compared to positive control; mutp53 conformation
Source text: as §4, §3
Extracts were prepared at a concentration of 750ng/μl and then reacted for 2 hours with different peptides. Plates coated with the different antibodies were then washed and blocked, and extracts pre-incubated either with or without peptides were added for two additional hours. After removal of extracts, plates were washed and incubated with HRP-conjugated anti-p53 antibody. Finally, HRP activity was quantified by optical density at 450nm. MCF7 cells (expressing WTp53) and H1299-tsp53^A135V cells, stably expressing a temperature sensitive p53 mutant that has mutant conformation at 37°C but WT conformation at 32°C [31], were used as positive controls for the WTp53 conformation (1620/240 ratio 5:1). […]

EP156 = assay: Crystal violet viability assay, EP156; type: cell-based; details: score 0-6 compared to positive control, 48 h
Source text: as §1, §2

Substance	SCORE (mutp53)	Viability HOP62 (HOP62)	Conform BT549 [1]	Viability H1299 [3]	DNA H1299 (mutp53^R175H [4])	further results
VWVHDSCHANLQNYRNYLP [pCAP-2, randomly selected peptide used as inert comparison]	2	–	–	–	–	–
LGIDEDEETETAPE [pCAP-6, randomly selected peptide used as inert comparison]	4	2	–	–	–	–
EHDFEVRGDVVNGRNHQPK [pCAP-4, randomly selected peptide used as inert comparison]	2	–	–	–	–	Viability ES2 (ES2 ovarian cancer cells): 2
DEDAKFRIRILMRR [pCAP-202, peptide with similarity to APAF1]	13	2	3	3	–	Viability SK3 (SK3): 3; Conform SK3 [2]: 2
SPLQTPAAPGAAAGPALSPV [pCAP-7, synthesized peptide of the functional screen]	3	–	–	–	1	Viability WI38 (WI38): 2
FPGHTIH [pCAP-100]	19	–	1	3	3	Conform SK3 [2]: 3; DNA SK3 [5]: 3
LEVIYMI [pCAP-5, randomly selected peptide used as inert comparison]	2	–	–	–	–	–
FWTQSIKERKMLNEHDFER [pCAP-3, randomly selected peptide used as inert comparison]	4	2	–	1	–	–
LPNPPERHH [pCAP-16]	22	3	–	3	3	Conform H1299 (mutp53^R175H [6]): 2; Viability EP156 (EP156): 4; DNA SK3 [5]: 3
myr-HSSHHHPTVQHRR [pCAP-257, myristoylated peptide, similarity to SIN3A]	16	3	3	–	3	Viability SK3 (SK3): 3; Viability EP156 (EP156): 4

Reference: publication PMC4914250, “Cancer therapeutic approach based on conformational stabilization of mutant p53 protein by small peptides” (Oncotarget, 2016)
